According to PMC10324399, “New Radiolabeled Exendin Analogues Show Reduced Renal Retention” (Molecular Pharmaceutics, 2023):

Experiments:
[1] = co-administration; cited from earlier work
Excerpt: Several successful strategies to reduce the renal uptake of radiolabeled peptides have been described. […]. […] These two studies evoked the question whether the translation of the methionine–isoleucine linker to exendin-4 could help to reduce the renal uptake of exendin. Based on literature, the additio ...

[2] = Dosimetry: kidney self-dose in mice (OLINDA/EXM, 25 g RADAR model); parameters: species or system mouse
Protocol: The kidney self-dose was calculated based on the activity distribution of the tracer in the kidneys. Time-integrated activity coefficients (MBq-h/MBq) were calculated using mono-exponential curve-fitting between the timepoints.

[3] = Serum stability of 68Ga- and 177Lu-labeled exendin-4 analogues in human serum; type: in vitro ADME; details: ^177Lu-labeled peptide, human serum (1:10), 37 °C, after 24 h, acetonitrile precipitation, RP-HPLC
Protocol: Serum stability was analyzed as described in the Supporting Information.
The radiolabeled compounds were incubated in
10 human serum (1:10) at 37°C and samples were taken after 1 and 2 hour incubation for the 68Ga-labeled
12 Supernatant was obtained by precipitating the serum proteins by adding a 1:1 (v/v) volume of
13 acetonitrile, followed by centrifugation for 5 min at 3220xg. Subsequently, the supernatant was
14 analyzed using RP-HPLC. RP-HPLC was performed as described in the main text.

[4] = Dosimetry: absorbed kidney dose extrapolated to humans (OLINDA/EXM, 80 kg male reference model); parameters: species or system human; details: radiolabeled tracer (^68Ga or ^177Lu), extrapolated from mice data
Excerpt: The mice data were then used to extrapolate the expected absorbed kidney doses per injected activity to humans using the equation:[25],[26] [drawing 1] with [drawing 2] the percentage of the injected activity concentration, [drawing 3] the percentage of the injected activity per organ, m the organ mass, and M the total human or mouse body weight.

Molecule | increase in renal uptake of radiolabeled exendin [1] | reduction of estimated absorbed kidney dose vs reference without MI linker ([2]; in both mice and humans) | estimated absorbed kidney dose per injected activity, mice ([2]; radiolabeled tracer (^68Ga or ^177Lu), from biodistribution in INS-1 tumor-bearing mice, OLINDA/EXM 2.1, 25 g RADAR model) | serum stability [3] | estimated absorbed kidney dose per injected activity, humans [4]
NCCCC[C@H](N)C(=O)O [lysine] | 6% | – | – | – | –
Lys^40[Mep((S-)DOTA-Met-Ile-Mal-)]exendin-4 [DOTA-MI-exendin-4] | – | 57% | 1974 mSv/MBq | >80% after 24 h | 0.89 mSv/MBq
